# In patent publication US20060099712A1, “Correlation of anti-cancer activity of dyes with redox potentials” (Eastman Kodak Company, priority 2004, published 2006):
# “And” between values parts separate entries of the source, which are not always exact repeats. Equal values may be shown once. Read-outs that look alike come from different tables or passages of the source.
# Experiments:
# [1] = system: CV-1 Normal Monkey Kidney Epithelial; experiment: Clonogenic dye screening assay, CV-1 cells (IC50); assay type: cell-based, African green monkey; conditions: for IC50: Primates; for CV (IC50 in the CV-1 cell line): 3 hrs treatment, unit from method b117-118
# Text: CX-1 is a cancerous human colon adenocarcinoma cell line. CV-1 is a non-cancerous control, which is a kidney epithelial cell line from an African green monkey. IC50 is the dye concentration at which 50% of the cells are killed. Selectivity or kill ratio is defined as the ratio of […] at IC50 for both CX-1 and CV-1. A ratio with a high number indicates a high selectivity.
# The dyes were screened in two cell lines. CX-1 is a human colon adenocarcinoma cell line. CV-1 is a kidney epithelial cell line from an African green monkey. CV-1 was used as a reference because no normal human epithelial cell line is available for clonogenic assay.
# In the initial screen, dyes were examined at six different concentrations to generate a dose response curve. An IC50 value, the concentration at which 50% of the cells are killed, was then calculated. Initially, a dye concentration of 1.0 μg/mL was the highest examined for the CX-1 cell line and 0.005 μg/mL was the lower limit. The corresponding limits on the CV-1 cell line were […].
# The screening procedure used a response curve that was determined from eight dye concentrations. The upper and lower limits of CX-1 were 0.32 and 0.0015 μg/mL, respectively, and the corresponding revised limits on CV-1 were 3.2 and 0.025 μg/mL. The screening results were reported by assigning an IC50 value to each dye for the CV-1 and CX-1 cell lines. These values will be referred to herein simply as CV and CX. The most desirable result would be to have a dye that was highly toxic to carcinoma cells but nontoxic to ‘normal’ cells. One measure of this type of selectivity is the ratio of the IC50's in the normal cell line to that in the carcinoma line, CV/CX.
# Compounds are screened via an in vitro assay. CV-1 and CX-1 cells are seeded into separate assay plates. The plates are treated with varying concentrations of test compounds, rinsed, and colonies allowed to grow. IC50's are determined and drugs evaluated based on their selectivity and toxicity. Assay Steps: • I. Seeding Cells • II. Weighing • III. Preparation of Solution • IV. Treatment • V. Rinsing and Feeding • VI. Fixing • VII. IC50 Determination I. Seeding Cells
# The cells should be seeded 16-30 hours before treatment. The media for CV-1 cells is DME+5% calf serum +5% Nuserum. The media for CX-1 cells is RPMI/DME (50/50)+5% calf serum +5% Nuserum.
# (c) number of cells based on 2000 CX-1 cells/well and 1000 CV-1 cells/well. NOTE: Always make enough cell suspension for 1 extra plate to allow for volume loss during transfers.
# • (a) For CV-1: 256 ug/ml-256 ul of 1 mg/ml stock +744 ul DMSO • (b) For CX-1: 25.6 ug/ml-100 ul of 256 ug/ml+900 ul DMSO IV. Treatment • 1. Each plate is treated with 4 test compounds, one positive control and one negative control. • 2. Serial dilutions of the compounds are made in the following way:
# 2 multi-well pipetters are used. One is set for 10 ul and one for 200 ul. Each is equipped with 6 tips spaced such that they fit into the 6 rows of a plate. 390 ul of media is added to the first column of each plate. 10 ul each of 4 compound solutions, a positive and a negative control are taken up and put into the first column of wells. The 200 ul pipetter is then placed in the same wells, pipetted up and down 3 times and two 200 ul aliquots are moved to the next column of wells. This column is pipetted up and down 3 times and 400 ul moved to column 3, etc. The final 400 ul excess from column 8 is discarded.
# • 3. Label the plates along the front, each row −1 compound. • 4. Incubate the plates at 37° C. for 3 hrs. V. Rinsing • 1. Prepare several bottles of CX-1 and CV-1 media. • 2. Check for precipitate in first column of each plate and note. • 3. Starting with the plates treated first, rinse several plates at a time by aspirating the treatments and refilling each well with 0.5-1.0 ml of the rinse media. Aspirate and refill 2 more times for a total of 3 rinses. • 4.
# [2] = system: CX-1 Human Colon Carcinoma; experiment: Clonogenic dye screening assay, CX-1 cells (IC50); assay type: cell-based; conditions: for IC50: Homo sapiens; for Selectivity: Table 1, cell line not given, values equal CV/CX of Table II; for CV/CX (selectivity, kill ratio): ratio of IC50 in normal CV-1 line to IC50 in carcinoma CX-1 line; for CX (IC50 in the CX-1 cell line): 3 hrs treatment, unit from method b117-118; for CV/CX: selectivity ratio of IC50 values
# How it was run: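 Cells seeded 16-30 h ahead (2000 CX-1 or 1000 CV-1 per well), exposed to serially diluted dyes for 3 h at 37 °C, rinsed three times, then grown into colonies. Eight-point curves spanned 0.32-0.0015 μg/mL (CX-1) and 3.2-0.025 μg/mL (CV-1). IC50 is the concentration killing 50% of cells.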
# [3] = Electrochemical reduction potential (Er) measurement, SHACV / fast scan CV; assay type: physicochemical
# Text: In the practice of this invention the reduction potential of a given dye may be determined in various ways. If available, the published reduction potential may be employed. Reduction potentials for numerous cyanine and merocyanine dyes are available in the literature. (See J. Lenhard, Journal of Imaging Science, vol. 30 pp. 27-35 (1986).) A large amount of data has been generated on the reduction and oxidation potentials of these dyes from their use in photography and related arts where they are employed, inter alia, as spectral sensitizers.
# If a published reduction potential is not available, suitable techniques for measuring reduction potential are available. Accurate electrochemical oxidation and reduction potentials for these organic dyes can be measured by the techniques of fast scan cyclic voltommetry (CV) or second harmonic ac voltommetry (SHACV). SHACV measurements are made as described by Lenhard in the Journal of Imaging Science volume 30, 1986 pp 27-35 using a commercially available (Princeton Applied Research Corp.) potentiostat in conjunction with voltage programmer, a conventional lock-in amplifier, and a low-distortion oscillator. The SHACV method utilizes an ac voltage waveform (of a frequency greater than or equal to 400 hz) that is superimposed on a DC potential ramp. On the other hand, the measurement of the oxidation or reduction potential by the CV method utilizes a (high frequency) triangular voltage waveform. The general procedures for measuring potentials by this method have been described by Wightman in Analytical Chemistry, 1984, vol. 56, pp524 and Journal of Physical Chemistry, 1984, vol. 88, pp3915. The specific application of this technique to the measurement of cyanine dye potentials has been reported by Nomura and Okazaki, Chemistry Letters, 1990, pp2231-2234. Commercial instrumentation especially designed for fast scan (i.e., high frequency) CV is available. It is noteworthy that because of the complicated nature of many of the cyanine dyes, electrochemical reactions, conventional slow scan cyclic voltommetry or polarography methods (as described by R. Large in Photographic Sensitivity, R. Cox, ed., Academic Press, New York, 1973, pp 241-263) provide only approximate values for oxidation and reduction potentials. Errors as large as 0.4 V from the true potential can be obtained by using slow scan CV or electrochemical methods.
# The procedure for measuring the oxidation or reduction potential by the SHACV or fast scan CV method utilizes solutions of acetonitrile (or similar nonaqueous solvent) with added tetrabutylammonium tetrafluoroborate TBABF4 at a concentration of 0.1 M and ca. 5×10^−4 M of the cyanine, oxonol, or merocyanine dye. For measurement of the reduction potential the solution must be deaerated with argon prior to examination. The preferred working electrode is a Pt disk (ca. 0.02 cm^2) that is polished with 1 μm diamond paste, rinsed with water, and dried before each experiment. The reference electrode is a NaCl saturated calomel electrode. The cell and reference electrodes are maintained at 22 C. A value of 40 mV is added to the measured potentials to convert the number to that corresponding to an Ag/AgCl reference electrode. If a solvent other than acetonitrile is used then the measured potential must be referenced to a standard organic redox system such as ferrocene and corrected accordingly.
# SHACV (Second Harmonic Alternating Current Voltametry) measurements are made as described by Lenhard in the Journal of Imaging Science volume 30, 1986 pp 27-35 using a commercially available (Princeton Applied Research Corp.) potentiostat in conjunction with voltage programmer, a conventional lock-in amplifier, and a low-distortion oscillator. The SHACV method utilizes an ac voltage waveform (of a frequency greater than or equal to 400 hz) that is superimposed on a DC potential ramp. […]
# [4] = CV-1, read-out: CV (IC50 in the CV-1 cell line)
# [5] = CX-1, read-out: CX (IC50 in the CX-1 cell line)
# [6] = CV-1, 3 hrs treatment, colonies after 7-10 days, unit from method, read-out: CV (IC50 in the CV-1 cell line)
# [7] = CX-1, 3 hrs treatment, colonies after 7-10 days, unit from method, read-out: CX (IC50 in the CX-1 cell line)
SMILES,"CV/CX (selectivity, kill ratio) [2]",CV (IC50 in the CV-1 cell line) ([1]; colonies after 7-10 days),CX (IC50 in the CX-1 cell line) ([2]; colonies after 7-10 days),"IC50 [1, 6]","IC50 [2, 7]",other results
CCN1/C(=C/C=C/c2sc3ccccc3[n+]2CC)[Se]c2ccc(Cl)cc21 [Dye D-135],>200.0 and 200,,,,,"IC50 [1, 4]: 1 µg/mL; IC50 [2, 5]: < 0.005 µg/mL; Selectivity [2]: 200"
CCN1/C(=C/C=C/c2oc3ccc(OC)cc3[n+]2CC)Sc2ccccc21.[I-] [Dye D-136],>60.0 and 60,0.3 µg/mL,<0.005 µg/mL,,,
CCN1/C(=C/C(=C/c2oc3ccccc3[n+]2CC)SC)Sc2ccccc21.[I-] [Dye D-137],100,3.0 µg/mL,0.03 µg/mL,,,
CCN1/C(=C/C=C/c2oc3ccc(SC)cc3[n+]2C)Sc2ccccc21.[I-] [Dye D-138],>60.0 and 60,0.3 µg/mL,<0.005 µg/mL,,,
CCN1/C(=C(\C=C\c2oc3ccccc3[n+]2CC)c2ccccc2)Sc2ccccc21.[I-] [Dye D-139],100,3.0 µg/mL,0.03 µg/mL,,,
CCN1/C(=C/C=C/c2cc3scc([S-])[n+]3c3ccccc23)Oc2ccccc21 [Dye D-141],100,,,0.5 µg/mL,< 0.005 µg/mL,
CCSC(=C\c1oc2ccccc2[n+]1CC)/C=C1\Sc2ccccc2N1CC.[I-] [Dye D-142],,0.5 µg/mL,<0.005 µg/mL,,,
CC[n+]1c(/C=C/C=C2\SCCCN2C)sc2ccccc21 [Dye D-144],100,,,3 µg/mL,0.03 µg/mL,
CC[n+]1c(/C=C/C=C2\OC=C(c3ccccc3)N2C)sc2ccccc21 [Dye D-145],60,,,0.3 µg/mL,< 0.005 µg/mL,
CCN1/C(=C/C=C/c2sc3c([n+]2C)CCCC3)Sc2ccccc21 [Dye D-146],75.0 and 60,,,0.3 µg/mL,≤ 0.004 µg/mL,
CCC(/C=C1\Sc2ccc(Cl)cc2N1C)=C\c1oc2ccc(-c3ccccc3)cc2[n+]1C [Dye D-147],160,,,8 µg/mL,0.05 µg/mL,
CCN1/C(=C/C=N/c2sc3ccccc3[n+]2CC)Sc2ccccc21 [Dye D-149],77.8,,,7 µg/mL,0.09 µg/mL,
CC[n+]1c(/C=C/C=C2\[Te]c3ccccc3N2C)sc2ccccc21 [Dye D-152],60,,,,,"IC50 ([1]; CV-1, read-out: CV): 0.3 µg/mL; IC50 [1, 4]: 0.3 µg/mL; IC50 ([2]; CX-1, read-out: CX): < 0.005 µg/mL; IC50 [2, 5]: < 0.005 µg/mL; CV/CX ([2]; Table XVI): >60.0; CX ([2]; Table XVII, benzotellurazole derivatives, CX-1 cells): <0.005; CV/CX ([2]; Table XVII): >60.0"
CCN1/C(=C/C=C/c2oc3ccc(-c4ccccc4)cc3[n+]2CCOC(C)=O)Sc2ccccc21 [Dye D-153],100,,,3 µg/mL,0.03 µg/mL,
CC[n+]1c(/C=C/c2ccc(N(C)C)cc2)[te]c2ccc(C)cc21 [Dye D-156],60,,,,,"IC50 [1, 4]: 3 µg/mL; IC50 [2, 5]: 0.05 µg/mL"
CCN1/C(=C/C=C/C=C/c2sc3cc4ccccc4cc3[n+]2CC)Sc2cc3ccccc3cc21 [Dye D-162],60,,,3 µg/mL,,
CCN1/C(=C/C=c2\s/c(=C\c3sc4ccccc4[n+]3CC)n(CCC(=O)O)c2=O)Sc2ccccc21 [Dye D-167],100.0,,,10 µg/mL,,
Clc1ccc2c(c1)N1CCC(/C=C3\CC[n+]4c3sc3ccc(Cl)cc34)=C1S2 [Dye D-168],100.0,,,,3 µg/mL,"Selectivity [2]: 100.0; ER(v), electrochemical reduction potential [3]: −0.9 V"
CC(=CC(C)=C1Sc2ccccc2N1C)c1sc2ccccc2[n+]1C [drawing 38|M|Me|H|Me],2.5,0.5 µg/mL,0.2 µg/mL,,,
CCN1/C(=C/C(C)=C/c2sc3ccc4ccccc4c3[n+]2CC)Oc2ccc3ccccc3c21 [drawing 40|E|Me],3.33 and 2.0,0.1 µg/mL,0.03 µg/mL and 0.05 µg/mL,,,
